Measured values from patent publication US5175338A, “Isocarbacyclin derivatives and their pharmaceutically acceptable salts thereof” (Teijin Limited, priority 1986, dated 1992).
Converted amounts (≈) assume the structure as drawn.

How the values were obtained:
Platelet aggregation = Platelet aggregation inhibiting activity in vitro (ADP-induced, rabbit platelet-rich plasma); assay type: cell-based, rabbits (Japanese native white male); settings: Oryctolagus cuniculus, rabbit PRP, ADP 10 μM, 37° C., minimum concentration at which inhibition exceeds 50%, read-out: Platelet aggregation inhibitory activity (IC50)
Experimental: The platelet aggregation inhibiting activity in vitro of each of the text compounds was assayed by using rabbits. Japanese native white male rabbits having a body weight of 2.5 to 3.5 kg were used. Blood was taken from the ear vein of the animals maintaining the 3.8% trisodium citrate/blood ratio at 1:9. The blood was centrifuged at 1,000 rpm for 10 minutes, and the upper layer was separated as PRP (platelet-rich plasma). The lower layer was further centrifuged at 2,800 rpm for 10 minutes. It separated into two layers. The upper layer was separated as PPP (platelet-poor plasma). The number of platelets was adjusted to 6×10^5 /microliter by dilution with PPP. Each of the test compounds was added in an amount of 25 microliters to 250 microliters of PRP after adjustment, and the mixture was subjected to preincubation at 37° C. for 2 minutes. Then ADP was added so that its final concentration was 10 μM, and variations in transmittance were recorded by using an agrigometer. The test compound was used after it was dissolved in ethanol to a concentration of 10 mg/ml and then serially diluted with phosphate buffer (pH 7.4). The percent inhibition of aggregation was calculated in accordance with the following equation. [formula] where
To is the transmittance of the system to which the test compound was not added, and
T is the transmittance of the system to which the test compound was added.
The minimum concentration of the compound at which the percent inhibition exceeds 50% is shown as IC50.

[1] = system: liver cell necrosis induced by carbon tetrachloride; experiment: Effect (in vivo) on liver cell necrosis induced by carbon tetrachloride; inhibition of plasma GPT activity increase; parameters: species or system SD-strain male rats; settings: five administrations, 24 hours after CCl4 s.c., rat
Experimental: Effect (in vivo) on liver cell necrosis induced by carbon tetrachloride
Carbon tetrachloride and each of the test compounds were administered to SD-strain male rats (6 weeks old, body weight 170 to 200 g) by the following procedure. Blood was taken from the animals, and glutamic acid-pyruvic acid transferase (GPT) activity as an index of liver injury was measured by the ultraviolet absorbance measuring method (rate-optimum standard method), and the effect of the test compound was evaluated.
The rats were used in groups each consisting of 8 to 36 rats. The test compound was used as an aqueous 0.5% Tween 80-2.5% ethanol solution. […] The test compound was administered five times in total, i.e. 30 minutes before administration of carbon tetrachloride and 1, 2, 8 and 18 hours after administration of carbon tetrachloride. The carbon tetrachloride was subcutaneously administered as a 50% olive oil solution at a rate of […] of body weight (6670 mg/kg body weight as carbon tetrachloride). Before administration of carbon tetrachloride, the animals had been caused to abstain from food for about 18 hours.
Twenty-four hours after the administration of carbon tetrachloride, the rats were anesthetized with ether. Blood was drawn from the abdominal artery of the animals, and left to stand at room temperature for 1 hour and then centrifuged at 3,000 rpm for 15 minutes. The supernatant was used as a serum sample, and the GPT activity was measured.
The percent inhibition of the test compound on the increase of the plasma GPT activity increase by CCl4 was calculated in accordance with the following equation. [formula]

IC50 (Platelet aggregation) [mg/L]	SMILES	Percent inhibition of the plasma GPT activity ([1]; 0.3 mg/kg p.o.) [%]	Percent inhibition of the plasma GPT activity ([1]; 1.0 mg/kg p.o.) [%]	Percent inhibition of the plasma GPT activity ([1]; 3.0 mg/kg p.o.) [%]
0.37 (≈ 1.02 µM)	CCCCC(C)(O)C/C=C/[C@@H]1[C@H]2CC(CCCCC(=O)O)=C[C@H]2C[C@H]1O (stereo partly shown) [15-Deoxy-16-hydroxy-16-methylisocarbacyclin]	–	–	–
> 1000	CCCC[C@H](C)C[C@H](O)/C=C/[C@@H]1[C@H]2CC(CCCCC(=O)N[C@@H](CC(C)C)C(=O)O)=C[C@H]2C[C@H]1O [17(S),20-Dimethylisocarbacyclin L-leucine amide]	33	–	–
407 (≈ 932 µM)	CCCC[C@H](C)C[C@H](O)/C=C/[C@@H]1[C@H]2CC(CCCCC(=O)OCC(=O)O)=C[C@H]2C[C@H]1O [17(S),20-dimethylisocarbacyclin carboxymethyl ester]	–	44	39
0.004 (≈ 0.0113 µM)	CCCCC[C@H](O)/C=C/[C@@H]1[C@H]2C/C(=C/CCCC(=O)O)O[C@H]2C[C@H]1O [Prostaglandin I2, reference compound]	–	–	–
